Converted amounts (≈) assume the structure as drawn.
Experiments:
[1] = target: hERG channel (Homo sapiens (Human), UniProt Q12809); test: cell-based
Method: Chinese hamster ovary (CHO) cell line, CHO-hERG cells were used in this study. CHO-hERG cells were derived from Sophion Biosciences Inc. (Ballerup, Denmark) in Suzhou, China. The cell reserve fluid is frozen in liquid nitrogen tanks. Each batch of stored cell fluid is tested for mycoplasma contamination. The cells were no longer used after 30 generations.
The whole cell patch clamp technique was used to record hERG current at room temperature. The patch-clamp amplifier outputs signals through […] conversion and 2.9 KHz low-pass filtering. Data records were collected by Patchmaster Pro software.
Cells were planted in a cell recording tank and placed on an inverted microscope platform. One cell in the recording tank was randomly selected for experiment. The perfusion system was fixed on an inverted microscope platform and cells were continuously irrigated with ECS.
Manual patch clamp recording microelectrode was prepared with capillary glass tube, which was filled with intracellular fluid. On the day of the patch clamp test, the electrodes were prepared using a borosilicate glass tube (GC150TF-10, Harvard Apparatus Co. UK). The resistance is between 2-5 MΩ after the electrode is filled with ICS.
The clamping voltage was −80 mV, and the first step was depolarized to +60 mV for 850 ms to open the hERG channel. The voltage is then set to −50 mV and maintained for 1275 ms, resulting in a rebound current or tail current, the peak of which is measured and used for analysis. Finally, the voltage is restored to the clamping voltage (−80 mV). During the test, the command voltage program was repeated every 15 s.
At the beginning of recording the perfusion of the solvent control working solution, the test substance/positive control working solution to be tested can be poured after monitoring the tail current peak until more than 3 scanning curves are stable, until the inhibition of the test substance/positive control working solution to the hERG current peak reaches a stable state. Generally, the most recent three consecutive peak values of the current curve basically coincide as a criterion to judge whether the state is stable. After reaching a stable state, continue to pour one concentration of the test sample. One or more test subjects/positive controls, or multiple concentrations of the same drug, can be tested on a cell, and the different test subjects/positive controls need to be rinsed with a solvent control working fluid until the hERG current returns to more than 80% of its pre-drug level.
The concentration of positive control cisapride was 0.1 μM, and two cells were repeated.

[2] = target: TYK2 (Mus musculus (Mouse), UniProt Q9R117); test: Luciferase assay in L929 ISRE cells stimulated with IFN-α; format: cell-based; settings: IFN-α 100 ng/mL; for inhibition at 0.05 µM: 50 nM, read-out: Inhibitory activity % (50 nM); for inhibition at 0.2 µM: 200 nM, read-out: Inhibitory activity % (200 nM); for inhibition at 1 µM: 1000 nM, read-out: Inhibitory activity % (1000 nM); for inhibition at 0.1 µM: 100 nM, read-out: Inhibitory activity % (100 nM)
TYK2, sequence (Q9R117 whole entry): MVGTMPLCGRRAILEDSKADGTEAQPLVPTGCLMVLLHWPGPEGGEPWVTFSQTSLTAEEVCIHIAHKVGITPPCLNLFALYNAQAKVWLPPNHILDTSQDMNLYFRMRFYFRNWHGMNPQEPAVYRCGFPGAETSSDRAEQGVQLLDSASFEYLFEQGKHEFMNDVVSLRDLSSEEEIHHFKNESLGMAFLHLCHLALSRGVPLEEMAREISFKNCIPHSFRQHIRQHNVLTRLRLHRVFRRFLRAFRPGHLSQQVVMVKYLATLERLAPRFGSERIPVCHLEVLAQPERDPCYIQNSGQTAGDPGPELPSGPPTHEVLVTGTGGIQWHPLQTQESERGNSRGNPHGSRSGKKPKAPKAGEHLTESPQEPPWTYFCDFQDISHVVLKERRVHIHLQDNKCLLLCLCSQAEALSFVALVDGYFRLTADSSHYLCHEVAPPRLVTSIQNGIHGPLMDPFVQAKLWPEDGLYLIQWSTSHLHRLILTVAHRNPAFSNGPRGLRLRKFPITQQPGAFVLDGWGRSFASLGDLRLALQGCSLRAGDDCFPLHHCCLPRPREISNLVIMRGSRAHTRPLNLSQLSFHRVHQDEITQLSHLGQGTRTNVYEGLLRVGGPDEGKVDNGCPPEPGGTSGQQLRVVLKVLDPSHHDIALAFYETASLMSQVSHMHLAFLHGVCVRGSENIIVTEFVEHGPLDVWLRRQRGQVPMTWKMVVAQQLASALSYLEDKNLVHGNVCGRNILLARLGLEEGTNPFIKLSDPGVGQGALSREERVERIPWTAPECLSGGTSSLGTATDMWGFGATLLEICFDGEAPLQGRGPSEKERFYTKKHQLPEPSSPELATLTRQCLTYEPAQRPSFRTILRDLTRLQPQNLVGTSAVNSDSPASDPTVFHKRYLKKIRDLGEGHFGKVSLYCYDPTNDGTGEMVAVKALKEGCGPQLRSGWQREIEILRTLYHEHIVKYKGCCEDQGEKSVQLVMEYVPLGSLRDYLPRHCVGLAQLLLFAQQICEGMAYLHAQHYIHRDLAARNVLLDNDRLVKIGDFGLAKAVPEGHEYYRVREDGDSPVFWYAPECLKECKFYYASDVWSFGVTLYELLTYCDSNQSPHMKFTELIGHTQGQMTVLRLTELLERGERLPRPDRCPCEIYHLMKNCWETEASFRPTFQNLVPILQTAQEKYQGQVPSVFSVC
Method: • 1. L929 ISRE cells (5000 cells/well) were seeded on 96-well plates and incubated overnight at room temperature; • 2. The cells were pretreated by adding different concentrations (10 nM, 50 nM, 100 nM, 200 nM or 1000 nM) of the test compounds for 2 hours; • 3. Added IFN-α (100 ng/mL) to stimulate cells for 6 hours; • 4. Removed the upper medium, add PBS (100 μL) and washed, then removed PBS; • 5. Added PLB lysis solution (50 μL) to each well, shook the well for 15 minutes; • 6. Transferred PLB lysis solution (30 μL) to a new 96-well whiteboard, added LAR II reagent (LAR II), then quickly read the […]; • 7. Added Stop & Glo reagent (30 μL), then read the 450 nm OD value using the plate washer. • 8. The final results in Table 3 were the OD value in step 6/OD value in step 7.

[3] = Kinetic solubility test; format: physicochemical; settings: for kinetic solubility (in words): conclusion from Table 6; for solubility kinetic at 2 h: phosphate buffer, aqueous buffer, kinetic from dmso stock, 50 mM PB pH 7.4
Method: • 1. 10 μL of test and control compounds (10 mM) in DMSO was added into lower chambers of Whatman mini-uniprep vials, respectively. • 2. Added 490 μL of 50 mM PB (pH 7.4) into lower chambers of the Whatman mini-uniprep vials, respectively. • 3. […] Shook the mini-uniprep vials on a Barnstead shaker for 2 hours at room temperature at the speed of 800 rpm. • 5. Centrifuged 20 minutes (e.g. 4000 rpm) • 6. Compressed mini-unipreps to prepare the filtrates for injection into UPLC system to calculate the concentration with standard curve.

[4] = target: TYK2 JH2 (Homo sapiens (Human), UniProt P29597); test: Competitive binding assay (kinase-tagged phage, qPCR), TYK2 JH2
TYK2 JH2, sequence (P29597 589-875): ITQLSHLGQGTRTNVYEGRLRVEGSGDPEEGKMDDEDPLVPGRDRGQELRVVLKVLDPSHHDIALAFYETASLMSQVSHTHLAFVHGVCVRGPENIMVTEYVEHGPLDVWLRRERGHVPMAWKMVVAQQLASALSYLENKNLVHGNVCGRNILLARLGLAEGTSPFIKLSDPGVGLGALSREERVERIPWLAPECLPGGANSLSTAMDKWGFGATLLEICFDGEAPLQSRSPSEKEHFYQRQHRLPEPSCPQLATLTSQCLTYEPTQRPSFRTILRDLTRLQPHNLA
Method: For most assays, kinase-tagged T7 phage strains were prepared in an E. coli host derived from the BL21 strain. E. coli were grown to log-phase and infected with T7 phage and incubated with shaking at 32° C. until lysis. The lysates were centrifuged and filtered to remove cell debris. The remaining kinases were produced in HEK-293 cells and subsequently tagged with DNA for qPCR detection. Streptavidin coated magnetic beads were treated with biotinylated small molecule ligands for 30 minutes at room temperature to generate affinity resins for kinase assays. The liganded beads were blocked with excess biotin and washed with blocking buffer (SeaBlock (Pierce), 1% BSA, 0.05% Tween 20, 1 mM DTT) to remove unbound ligand and to reduce non-specific binding. […] Test compounds were prepared as 111X stocks in 100% DMSO. Dissociation constants (Kds) were determined using an 11-point 3-fold compound dilution series with three DMSO control points. All compounds for Kd measurements are distributed by acoustic transfer (non-contact dispensing) in 100% DMSO. The compounds were then diluted directly into the assays such that the final concentration of DMSO was 0.9%. All reactions performed in polypropylene 384-well plate. Each was a final volume of 0.02 ml. The assay plates were incubated at room temperature with shaking for 1 hour and the affinity beads were washed with wash buffer (1×PBS, 0.05% Tween 20). The beads were then re-suspended in elution buffer (1×PBS, 0.05% Tween 20, 0.5 μM nonbiotinylated affinity ligand) and incubated at room temperature with shaking for 30 minutes. The kinase concentration in the eluates was measured by qPCR.
An 11-point 3-fold serial dilution of each test compound was prepared in 100% DMSO at 100× final test concentration and subsequently diluted to 1× in the assay (final DMSO concentration=1%). Most Kds were determined using a compound top concentration=30,000 nM. If the initial Kd determined was <0.5 nM (the lowest concentration tested), the measurement was repeated with a serial dilution starting at a lower top concentration.
Binding constants (Kds) were calculated with a standard dose-response curve using the Hill equation: […]
The Hill Slope was set to −1.
Curves were fitted using a non-linear least square fit with the Levenberg-Marquardt algorithm.

hERG channel, sequence (Q12809 whole entry): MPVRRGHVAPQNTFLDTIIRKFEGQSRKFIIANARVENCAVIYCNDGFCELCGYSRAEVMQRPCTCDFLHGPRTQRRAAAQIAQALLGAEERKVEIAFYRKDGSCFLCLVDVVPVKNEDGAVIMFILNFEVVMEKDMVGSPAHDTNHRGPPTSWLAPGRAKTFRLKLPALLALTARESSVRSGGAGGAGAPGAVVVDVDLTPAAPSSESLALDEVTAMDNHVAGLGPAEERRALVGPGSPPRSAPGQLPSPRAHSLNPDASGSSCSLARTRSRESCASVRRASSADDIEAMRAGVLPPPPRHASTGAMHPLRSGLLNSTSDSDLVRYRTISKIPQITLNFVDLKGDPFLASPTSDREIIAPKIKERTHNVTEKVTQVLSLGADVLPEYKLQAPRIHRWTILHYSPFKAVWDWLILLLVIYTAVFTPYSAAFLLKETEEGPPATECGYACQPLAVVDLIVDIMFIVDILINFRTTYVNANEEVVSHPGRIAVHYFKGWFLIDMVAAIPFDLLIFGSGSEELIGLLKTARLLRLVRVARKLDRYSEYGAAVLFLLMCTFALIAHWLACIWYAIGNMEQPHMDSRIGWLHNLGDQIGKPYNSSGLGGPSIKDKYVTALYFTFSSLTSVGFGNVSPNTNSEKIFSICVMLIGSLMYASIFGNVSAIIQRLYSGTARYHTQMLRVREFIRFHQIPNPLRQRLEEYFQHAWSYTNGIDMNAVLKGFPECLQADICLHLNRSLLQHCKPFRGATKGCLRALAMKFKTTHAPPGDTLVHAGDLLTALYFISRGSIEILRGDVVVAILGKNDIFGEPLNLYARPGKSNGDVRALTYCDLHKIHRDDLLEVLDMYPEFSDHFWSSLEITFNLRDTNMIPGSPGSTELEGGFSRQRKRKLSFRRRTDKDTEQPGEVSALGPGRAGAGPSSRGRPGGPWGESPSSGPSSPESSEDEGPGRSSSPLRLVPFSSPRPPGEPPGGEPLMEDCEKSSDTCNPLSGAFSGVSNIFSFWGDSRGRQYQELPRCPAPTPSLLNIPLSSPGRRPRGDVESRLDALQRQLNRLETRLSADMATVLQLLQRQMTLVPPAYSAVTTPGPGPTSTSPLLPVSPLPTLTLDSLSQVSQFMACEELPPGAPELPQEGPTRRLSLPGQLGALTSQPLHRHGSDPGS

inhibition at 0.05 µM [2]	inhibition at 0.2 µM [2]	inhibition at 1 µM [2]	kinetic solubility (in words) [3]	solubility kinetic at 2 h [3]	Kd [4]	inhibition at 0.01 µM ([2]; 10 nM, read-out: Inhibitory activity % (10 nM))	inhibition at 0.1 µM [2]	Compound	IC50 [1]	inhibition on hERG channel (in words) [1]
86%	92%	97%	low to moderate	11.3 µM (≈ 6.24 µg/mL)				[2H]C([2H])([2H])NC(=O)c1nnc(NC(=O)C2CC2)cc1Nc1cccc(-c2cc(P(=O)(C3CC3)C3CC3)n(C)n2)c1OC [Compound B41, 6-(cyclopropanecarboxamido)-4-((3-(5-(dicyclopropylphosphoryl)-1-methyl-1H-pyrazol-3-yl)-2-methoxyphenyl)amino)-N-(methyl-d3)pyridazine-3-carboxamide]	> 30 µM	no inhibition
89%	95%	97%			0.044 nM			CCC(=O)c1cnc(NC(=O)C2CC2)cc1Nc1cccc(-c2cc(P(=O)(C3CC3)C3CC3)n(C)n2)c1OC [Compound B37, N-(4-((3-(5-(dicyclopropylphosphoryl)-1-methyl-1H-pyrazol-3-yl)-2-methoxyphenyl)amino)-5-propionylpyridin-2-yl)cyclopropanecarboxamide]	> 30 µM	no inhibition
		94%	good	52.4 µM (≈ 26 µg/mL)	0.043 nM	45%	58%	CCC(=O)c1cnc(NC(=O)C2CC2)cc1Nc1cccc(-c2cc(P(C)(C)=O)n(C)n2)c1OC [Compound B2, N-(4-((3-(5-(dimethylphosphoryl)-1-methyl-1H-pyrazol-3-yl)-2-methoxyphenyl)amino)-5-propionylpyridin-2-yl)cyclopropanecarboxamide]	> 30 µM	no inhibition
		83%	good	91.9 µM (≈ 45.8 µg/mL)	0.063 nM		43%	[2H]C([2H])([2H])n1nc(-c2cccc(Nc3cc(NC(=O)C4CC4)ncc3C(=O)CC)c2OC)cc1P(C)(C)=O [Compound B22]	> 30 µM	no inhibition

Source: patent US20240343747A1, “Heteroaryl compounds as inhibitors of TYK2, composition and application thereof” (Accro Bioscience (HK) Limited, priority 2021, published 2024)
